# Measurements: US7396645B1, “Cholestasis signature” (priority 2002, dated 2008)
# Read-outs that look alike come from different tables or passages of the source. Marks after values point to notes of the source that are not given here.
# Tests used:
# Cholestasis Signature = test system: Cholestasis Signature
# Experimental: (§1) After determination of the MTD and FED for a compound, each compound was dissolved in a vehicle for administration on day 1 of the study (additional daily doses were stored as frozen aliquots from this initial formulation). Each compound was administered to three individual male Sprague-Dawley rats for each of the two doses (MTD and FED) for one of four different times (0.25 day, 1 day, 3 days, and 5 days), yielding a total of up to 24 animals per compound study. Vehicle choice was based on solubility of the compound, effect of food on adsorption, and the vehicles used in the literature reports examined during the FED selection investigations, described above. Generally, the route and vehicle in which the FED was defined are used. When there was a choice of routes and vehicles, oral routes were chosen over injection routes. Many compounds, especially oncolytics, are only administerable intravenously. In such cases, the compound was administered as an intravenous formulation into the tail vein. Orally administered compounds were given dissolved in either water, 1% carboxymethycellulose (CMC) or corn oil. Intravenously and intraperitoneally administered compounds were given in 0.9% saline. Subcutaneously administered compounds were given in corn oil. Animal body weights were determined at 1 day and, where appropriate, at 4 days, before necropsy, and clinical observations were made on a daily basis. Control animals were dosed with vehicle only. Three male animals were used for each dose and time combination used for the compound treatment.
# (§2) Tissue Harvest and Handling: After the allocated treatment time, the tissues from the animals were harvested. […] All the tissues collected were divided to provide samples for histopathological analyses, and the remainder of each tissue was then snap-frozen. […] The parameters were measured using a Hitachi-911 clinical chemistry analysis instrument according to the manufacturer's instructions. The following blood constituents were measured: Blood Urea Nitrogen (BUN), Creatinine (CRE), Glucose (GLU), Alanine Transaminase (ALT), Aspartate Aminotrans-ferase (AST), Alkaline Phosphatase (ALP), Total Bilirubin (TBI), Sodium (SOD), Potassium (POT), Chloride (CHL), Phosphorus (PHO), Total Protein (TPR), Albumin (ALB), Cholesterol (CHO), Creatine Phosphokinase (CPK), Lactate Dehydrogenase (LDH), Carbon Dioxide (CO2), Uric Acid (UA), and Lipase. […] The parameters were measured using a Baker 9000 blood cell analysis instrument according to the manufactures instructions. The following blood constituents were measured: Leukocyte count (WBC), Differential Leukocyte counts, Erythrocyte count (RBC), Hemoglobin concentration (HGB), Hematocrit (HCT), Mean Corpuscular Volume (MCV), Mean Corpuscular Hemoglobin (MCH), Mean Corpuscular Hemoglobin Concentration (MCC), Thrombocyte Count (PLC). Histopathology: Histopathological analyses of hematoxylin and eosin-stained tissue sections were performed and peer-reviewed by board-certified (Diplomate, American College of Veterinary Pathologists) veterinary pathologists. Preparation of Enriched mRNA: Punch Biopsies were Taken from the Frozen Tissues and were completely homogenized before being processed using the MagNA Pure robot. (Roche Diagnostics Corp., Indianapolis, Ind.) in combination with the MagNA Pure LC RNA Isolation kit II (Roche Diagnostics Corp). The amount of lysis buffer was adjusted to allow 1 ml per 50 mg for liver tissue, or 1 ml per 80 mg for all other tissues. After complete homogenization and before loading of the samples into the 32-well MagNA Pure plate, the samples were syringed 5-6 times using a 20-gauge 3-ml syringe to ensure a smooth solution for robotic processing. Tissue sample processing was performed in duplicate wells (loading 150 μl of homogenized sample and 150 μl of additional lysis buffer to each well) of the MagNA Pure LC, which is programmed to extract mRNA using oligo-dT selection technology into a final elution volume of 100 μl.
# male Sprague-Dawley rats = conditions: rat
# Description: Compound dosing was based on the acute dose LD50s recorded in published reference or literature sources. […] The MTD (maximum tolerated dose) was then selected as the dose at which the animals […] 5-10% body weight during the 5-day range finding study. […] In addition, the clinical observations must show no or mild clinical signs during the whole of the range-finding study. At the next highest dose, signs and symptoms of adverse effects and exceeding those of the MTD should be seen to occur. Should these criteria not be met, the range-finding study is repeated using a modified dose range.
# as §1
# Tissue Harvest and Handling: After the allocated treatment time, the tissues from the animals were harvested. […] All the tissues collected were divided to provide samples for histopathological analyses, and the remainder of each tissue was then snap-frozen. […] The parameters were measured using a Hitachi-911 clinical chemistry analysis instrument according to the manufacturer's instructions. The following blood constituents were measured: Blood Urea Nitrogen (BUN), Creatinine (CRE), Glucose (GLU), Alanine Transaminase (ALT), Aspartate Aminotrans-ferase (AST), Alkaline Phosphatase (ALP), Total Bilirubin (TBI), Sodium (SOD), Potassium (POT), Chloride (CHL), Phosphorus (PHO), Total Protein (TPR), Albumin (ALB), Cholesterol (CHO), Creatine Phosphokinase (CPK), Lactate Dehydrogenase (LDH), Carbon Dioxide (CO2), Uric Acid (UA), and Lipase. […] The parameters were measured using a Baker 9000 blood cell analysis instrument according to the manufactures instructions. The following blood constituents were measured: Leukocyte count (WBC), Differential Leukocyte counts, Erythrocyte count (RBC), Hemoglobin concentration (HGB), Hematocrit (HCT), Mean Corpuscular Volume (MCV), Mean Corpuscular Hemoglobin (MCH), Mean Corpuscular Hemoglobin Concentration (MCC), Thrombocyte Count (PLC). Histopathology: Histopathological analyses of hematoxylin and eosin-stained tissue sections were performed and peer-reviewed by board-certified (Diplomate, American College of Veterinary Pathologists) veterinary pathologists.
# livers of rats = test system: livers of rats
# Experimental: as §1, §2
# [1] = rat liver expression data vs Cholestasis Signature, maximum score of training treatments normalised to 100, dose and time not given
# [2] = 81 mg/kg orally in corn oil, 5 days, vs vehicle control, average of 3 animals
SMILES,"Sequence Projection Score (SPS) (Cholestasis Signature; rat, in vivo)",also measured
CC1=C(CC(=O)O)c2cc(F)ccc2/C1=C\c1ccc([S+](C)[O-])cc1 (stereo not drawn),45*,
"CC(C)c1c(C(=O)Nc2ccccc2)c(-c2ccccc2)c(-c2ccc(F)cc2)n1CC[C@@H](O)C[C@@H](O)CC(=O)O (relative stereo) [ATORVASTATIN, (R—(R*,R*))-2-(4-fluorophenyl)-β,δ-dihydroxy-5-(1-methylethyl)-3-phenyl-4-((phenylamino)carbonyl)-1H-pyrrole-1-heptanoic acid]",62*,"raised serum levels of ALP and TBI compared with vehicle-treated control animals (male Sprague-Dawley rats; in vivo, po): at least 2 fold"
"S=C=Nc1cccc2ccccc12 [1-NAPHTHYL ISOTHIOCYANATE, 1-naphthyl isothiocyanate]",,Sequence Projection Score (SPS) (Cholestasis Signature; [1]): 90**
"Nc1ccc(Cc2ccc(N)cc2)cc1 [4,4′-DIAMINODIPHENYLMETHANE, 4,4′-diaminodiphenylmethane]",,"Fold change in serum alkaline phosphatase (male Sprague-Dawley rats; [2]): 1.6 fold; Fold change in serum alkaline phosphatase and total bilirubin (male Sprague-Dawley rats; [2]): 7.7 fold; Fold change in serum total bilirubin (male Sprague-Dawley rats; [2]): 4.9 fold; Sequence Projection Score (SPS) (Cholestasis Signature; [1]): 77**; bile duct hyperplasia (livers of rats; rat liver histopathology, training-set treatments, in most animals): moderate"
CCCCCCCCc1ccc(O)cc1 [4-OCTYLPHENOL],,Sequence Projection Score (SPS) (Cholestasis Signature; [1]): 22
C[C@]12CCC(=O)C=C1CC[C@@H]1[C@@H]2CC[C@@]2(C)[C@H]1CC[C@]2(C)O [17-METHYLTESTOSTERONE],,Sequence Projection Score (SPS) (Cholestasis Signature; [1]): 36*
C[C@]12CC[C@@H]3c4ccc(O)cc4CC[C@H]3[C@@H]1CC[C@@H]2O [BETA ESTRADIOL],26*,
CC(C)(Oc1ccc(CCNC(=O)c2ccc(Cl)cc2)cc1)C(=O)O [BEZAFIBRATE],42*,
Oc1c(Cl)cc(Cl)cc1Sc1cc(Cl)cc(Cl)c1O [BITHIONOL],23*,
ClC(Cl)(Cl)Cl [CARBON TETRACHLORIDE],,Sequence Projection Score (SPS) (Cholestasis Signature; [1]): 50*
COCc1c(C(C)C)nc(C(C)C)c(/C=C/[C@@H](O)C[C@@H](O)CC(=O)O)c1-c1ccc(F)cc1 [CERIVASTATIN],36*,
CCOC(=O)C(C)(C)Oc1ccc(Cl)cc1 [CLOFIBRATE],22,
C[C@@H]1C[C@H]2[C@@H]3CCC4=CC(=O)C=C[C@]4(C)[C@@]3(F)[C@@H](O)C[C@]2(C)[C@@]1(O)C(=O)CO [DEXAMETHASONE],32*,
O=C(O)Cc1ccccc1Nc1c(Cl)cccc1Cl [DICLOFENAC],41*,
C[C@]12CC[C@@H]3c4ccc(O)cc4CC[C@H]3[C@@H]1C[C@@H](O)[C@@H]2O [ESTRIOL],27*,
CCO [ETHANOL],,"raised serum levels of ALP and TBI compared with vehicle-treated control animals (male Sprague-Dawley rats; in vivo, po): at least 2 fold; Fold change in serum alkaline phosphatase (male Sprague-Dawley rats; in vivo, po, 3000 mg/kg): 1.5 fold; Fold change in serum alkaline phosphatase and total bilirubin (male Sprague-Dawley rats; in vivo, po, 3000 mg/kg): 3.1 fold; Fold change in serum total bilirubin (male Sprague-Dawley rats; in vivo, po, 3000 mg/kg): 2.0 fold; steatosis (livers of rats; rat, in vivo): moderate to very severe"
C#C[C@]1(O)CC[C@H]2[C@@H]3CCc4cc(O)ccc4[C@H]3CC[C@@]21C [ETHINYLESTRADIOL],61*,
CC(C)OC(=O)C(C)(C)Oc1ccc(C(=O)c2ccc(Cl)cc2)cc1 [FENOFIBRATE],43*,

SMILES,"Sequence Projection Score (SPS) (Cholestasis Signature; rat, in vivo)",also measured
OC(Cn1cncn1)(Cn1cncn1)c1ccc(F)cc1F [FLUCONAZOLE],63*,
CC(C)n1c(/C=C/C(O)CC(O)CC(=O)O)c(-c2ccc(F)cc2)c2ccccc21 (stereo not drawn) [FLUVASTATIN],67*,
CC(C)Cc1ccc(C(C)C(=O)O)cc1 (stereo not drawn) [IBUPROFEN],33*,
COc1ccc2c(c1)c(CC(=O)O)c(C)n2C(=O)c1ccc(Cl)cc1 [INDOMETHACIN],52*,
CCC(C)n1ncn(-c2ccc(N3CCN(c4ccc(OCC5COC(Cn6cncn6)(c6ccc(Cl)cc6Cl)O5)cc4)CC3)cc2)c1=O (stereo not drawn) [ITRACONAZOLE],17,
CC(=O)N1CCN(c2ccc(OCC3COC(Cn4ccnc4)(c4ccc(Cl)cc4Cl)O3)cc2)CC1 (stereo not drawn) [KETOCONAZOLE],21,
CC[C@H](C)C(=O)O[C@H]1C[C@@H](C)C=C2C=C[C@H](C)[C@H](CC[C@@H]3C[C@@H](O)CC(=O)O3)[C@H]21 [LOVASTATIN],37*,
Cc1cnc(NC(=O)C2=C(O)c3ccccc3S(=O)(=O)N2C)s1 [MELOXICAM],31*,
CN(Cc1cnc2nc(N)nc(N)c2n1)c1ccc(C(=O)N[C@@H](CCC(=O)O)C(=O)O)cc1 [METHOTREXATE],17,
"Clc1ccc(COC(Cn2ccnc2)c2ccc(Cl)cc2Cl)c(Cl)c1 (stereo not drawn) [MICONAZOLE, 1-[2,4-dichloro-β-(2,4-dichlorobenzyloxy)phenethyl]imidazole nitrate]",,"Sequence Projection Score (SPS) (Cholestasis Signature; [1]): 100**; increased hepatocyte enlargement and increased eosinophilic granular cytoplasm (livers of rats; rat liver histopathology, training-set treatments): mild to severe"
CC#C[C@]1(O)CC[C@H]2[C@@H]3CCC4=CC(=O)CCC4=C3[C@@H](c3ccc(N(C)C)cc3)C[C@@]21C [MIFEPRISTONE],39*,
"CN(C)C=O [N,N-DIMETHYLFORMAMIDE]",,Sequence Projection Score (SPS) (Cholestasis Signature; [1]): 27*
COc1ccc2cc([C@H](C)C(=O)O)ccc2c1 [NAPROXEN],48*,
CS(=O)(=O)Nc1ccc([N+](=O)[O-])cc1Oc1ccccc1 [NIMESULIDE],38*,
C#C[C@]1(OC(C)=O)CC[C@H]2[C@@H]3CCC4=CC(=O)CC[C@@H]4[C@H]3CC[C@@]21C [NORETHINDRONE ACETATE],23*,
CS(=O)(=O)c1ccc(C2=C(c3ccccc3)C(=O)OC2)cc1 [ROFECOXIB],27*,
Nc1nc2nc[nH]c2c(=S)[nH]1 [THIOGUANINE],19,
